Results published in US9796716B2, “Selective inhibitors of Tec and Src protein kinase families” (Pharmascience, Inc., priority 2012, dated 2017).

Tests used:
[1] = molecular target: recombinant human full-length Bruton Agammaglobulinemia Tyrosine Kinase (Btk) (Homo sapiens (Human), UniProt Q06187); assay: Btk Kinase Inhibition Assay (fluorescence polarization); assay type: biochemical; settings: 10 μM ATP, 250 μM substrate, 60 minutes; Ki calculated from IC50 using the Cheng-Prusoff equation
Description: Kinase Binding Btk Kinase Inhibition Assay
Fluorescence polarization-based kinase assays were performed in 384 well-plate format using histidine tagged recombinant human full-length Bruton Agammaglobulinemia Tyrosine Kinase (Btk) and a modified protocol of the KinEASE™ FP Fluorescein Green Assay supplied from Millipore. Kinase reaction were performed at room temperature for 60 minutes in presence of 250 μM substrate, 10 μM ATP and variable test article concentrations. The reaction was stopped with EDTA/kinase detection reagents and the polarization measured on a Tecan 500 instrument. From the dose-response curve obtained, the IC50 was calculated using Graph Pad Prisms® using a non linear fit curve. The Km for ATP on each enzyme was experimentally determined and the Ki values calculated using the Cheng-Prusoff equation (see: Cheng Y, Prusoff W H. (1973) Relationship between the inhibition constant (K1) and the concentration of inhibitor which causes 50 percent inhibition (I50) of an enzymatic reaction”. Biochem Pharmacol 22 (23): 3099-108).

[2] = system: Splenocytes (B cell proliferation stimulated with anti-IgM F(ab′)2); assay: Splenic Cell Proliferation Assay; assay type: cell-based; settings: Mus musculus, Splenocyte, 72 h, CD1 mouse splenocytes, 2.5 ug/ml anti-IgM F(ab′)2 for 72 h, Cell Titer-Glo; read-out: EC50 (nM), Inhibition of splenic cell proliferation
Description: Splenic Cell Proliferation Assay
Splenocytes were obtained from 6 week old male CD1 mice (Charles River Laboratories Inc.). Mouse spleens were manually disrupted in PBS and filtered using a 70 um cell strainer followed by ammonium chloride red blood cell lysis. Cells were washed, resuspended in Splenocyte Medium (HyClone RPMI supplemented with 10% heat-inactivated FBS, 0.5× non-essential amino acids, 10 mM HEPES, 50 uM beta mercaptoethanol) and incubated at 37° C., 5% CO2 for 2 h to remove adherent cells. Suspension cells were seeded in 96 well plates at 50,000 cells per well and incubated at 37° C., 5% CO2 for 1 h. Splenocytes were pre-treated in triplicate with 10,000 nM curves of Formula 1 compounds for 1 h, followed by stimulation of B cell proliferation with 2.5 ug/ml anti-IgM F(ab′)2 (Jackson ImmunoResearch) for 72 h. Cell proliferation was measured by Cell Titer-Glo Luminescent Assay (Promega). EC50 values (50% proliferation in the presence of compound as compared to vehicle treated controls) were calculated from dose response compound curves using GraphPad Prism Software.

Sequence of recombinant human full-length Bruton Agammaglobulinemia Tyrosine Kinase (Btk) (Q06187 whole entry): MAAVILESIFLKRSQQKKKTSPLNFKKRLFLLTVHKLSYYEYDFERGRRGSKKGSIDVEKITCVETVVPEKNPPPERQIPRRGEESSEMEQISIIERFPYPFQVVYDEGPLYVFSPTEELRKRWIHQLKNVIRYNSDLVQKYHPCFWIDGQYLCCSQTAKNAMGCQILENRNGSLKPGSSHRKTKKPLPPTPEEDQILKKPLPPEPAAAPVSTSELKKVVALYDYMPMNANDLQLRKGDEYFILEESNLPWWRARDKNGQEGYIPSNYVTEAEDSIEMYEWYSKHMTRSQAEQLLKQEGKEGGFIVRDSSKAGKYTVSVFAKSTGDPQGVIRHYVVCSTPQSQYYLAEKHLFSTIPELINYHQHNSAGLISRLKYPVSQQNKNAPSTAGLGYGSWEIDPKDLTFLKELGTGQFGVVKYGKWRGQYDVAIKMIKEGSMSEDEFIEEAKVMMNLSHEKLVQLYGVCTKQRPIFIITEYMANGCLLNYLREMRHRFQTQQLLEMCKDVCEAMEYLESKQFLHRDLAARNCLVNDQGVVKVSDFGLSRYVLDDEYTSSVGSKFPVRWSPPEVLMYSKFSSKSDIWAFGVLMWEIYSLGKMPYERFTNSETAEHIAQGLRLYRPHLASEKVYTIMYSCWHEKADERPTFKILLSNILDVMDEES

Ki [1] | SMILES | EC50 [2]
< 100 nM | Nc1ncnc2c1c(-c1ccc(Oc3cccc(COc4ccccc4C(F)(F)F)c3)cc1)nn2C1CCCC1 [Compound 32] | < 100 nM
< 100 nM | CC(C)n1nc(-c2ccc(Oc3cc(F)cc(OCc4cncn4C)c3)cc2F)c2c(N)ncnc21 [Compound 98] | < 100 nM
< 100 nM | Nc1ncnc2c1c(-c1ccc(Oc3cccc(COc4ccccc4)c3)cc1)nn2C1CCCC1 [Compound 13] | < 100 nM
< 100 nM | CC(C)Cn1cncc1COc1cc(F)cc(Oc2ccc(-c3nn(C4CCOCC4)c4ncnc(N)c34)cc2)c1 [Compound 74] | 100 to 1000 nM
< 100 nM | Cc1ncc(COc2cc(F)cc(Oc3ccc(-c4nn(C(C)C)c5ncnc(N)c45)cc3)c2)n1C [Compound 123] | < 100 nM
< 100 nM | CC(C)(C)OC(=O)N1CCC[C@@H](n2nc(-c3ccc(Oc4cccc(OCc5ccccc5)c4)cc3)c3c(N)ncnc32)C1 [Compound 3] | 100 to 1000 nM
< 100 nM | Cn1nc(-c2ccc(Oc3cccc(COc4ccccc4C(F)(F)F)c3)cc2)c2c(N)ncnc21 [Compound 31] | 100 to 1000 nM
< 100 nM | Cc1ncc(COc2cc(F)cc(Oc3ccc(-c4nn(C5CCCC5)c5ncnc(N)c45)cc3)c2)n1C [Compound 120] | < 100 nM
< 100 nM | Cc1ncc(COc2cc(F)cc(Oc3ccc(-c4nn(C5CCOCC5)c5ncnc(N)c45)c(F)c3)c2)s1 [Compound 60] | < 100 nM
< 100 nM | Cc1ncc(COc2cc(F)cc(Oc3ccc(-c4nn(C5CCOCC5)c5ncnc(N)c45)cc3)c2)[nH]1 [Compound 118] | 100 to 1000 nM
< 100 nM | Cc1ccc(COc2cc(F)cc(Oc3ccc(-c4nn(CC(C)(C)O)c5ncnc(N)c45)cc3)c2)cn1 [Compound 111] | 100 to 1000 nM
< 100 nM | Nc1ncnc2c1c(-c1ccc(Oc3cccc(OCc4ccc(Cl)cc4)c3)cc1)nn2C1CCCC1 [Compound 9] | 100 to 1000 nM
< 100 nM | Cc1ncc(COc2cccc(Oc3ccc(-c4nn(C5CCCC5)c5ncnc(N)c45)cc3)c2)s1 [Compound 37] | < 100 nM
< 100 nM | Nc1ncnc2c1c(-c1ccc(Oc3cccc(OCc4cncs4)c3)cc1)nn2CCCN1CCOCC1 [Compound 53] | < 100 nM
< 100 nM | Cc1ncc(COc2cc(F)cc(Oc3ccc(-c4nn(C(CO)CCl)c5ncnc(N)c45)cc3)c2)s1 (stereo not drawn) [Compound 109] | < 100 nM
< 100 nM | N#Cc1ccccc1COc1cccc(Oc2ccc(-c3nn(C4CCOCC4)c4ncnc(N)c34)cc2)c1 [Compound 35] | < 100 nM
< 100 nM | CC(=O)N1CCC(n2nc(-c3ccc(Oc4cccc(OCc5cncs5)c4)cc3)c3c(N)ncnc32)CC1 [Compound 47] | < 100 nM
< 100 nM | Nc1ncnc2c1c(-c1ccc(Oc3cccc(COc4ccccc4C(F)(F)F)c3)cc1)nn2C1CCOCC1 [Compound 36] | < 100 nM
< 100 nM | Cc1ccc(COc2cc(F)cc(Oc3ccc(-c4nn(C5CCOCC5)c5ncnc(N)c45)cc3)c2)c[n+]1[O-] [Compound 91] | < 100 nM
< 100 nM | Cn1cncc1COc1cc(F)cc(Oc2ccc(-c3nn(CC(C)(C)O)c4ncnc(N)c34)cc2)c1 [Compound 112] | 100 to 1000 nM
< 100 nM | Cc1ncc(COc2cc(F)cc(Oc3ccc(-c4nn(CCN5CCOCC5)c5ncnc(N)c45)cc3)c2)s1 [Compound 52] | < 100 nM
< 100 nM | Cn1cncc1COc1cc(F)cc(Oc2ccc(-c3nn(C4CCOCC4)c4ncnc(N)c34)cc2F)c1 [Compound 72] | 100 to 1000 nM
< 100 nM | Nc1ncnc2c1c(-c1ccc(Oc3cc(F)cc(OCc4cnccn4)c3)cc1)nn2C1CCOCC1 [Compound 69] | < 100 nM
< 100 nM | Cc1ncc(COc2cc(F)cc(Oc3ccc(-c4nn(CC5(C)COC5)c5ncnc(N)c45)cc3)c2)cn1 [Compound 119] | 100 to 1000 nM
< 100 nM | Cn1cncc1COc1cc(F)cc(Oc2ccc(-c3nn(C4CCCC4)c4ncnc(N)c34)c(F)c2)c1 [Compound 92] | < 100 nM
< 100 nM | Cc1ncc(COc2cc(F)cc(Oc3ccc(-c4nn(CCO)c5ncnc(N)c45)cc3)c2)s1 [Compound 81] | < 100 nM
< 100 nM | Cn1nc(-c2ccc(Oc3cccc(OCc4ccccc4C#N)c3)cc2)c2c(N)ncnc21 [Compound 30] | < 100 nM

Ki [1] | SMILES | EC50 [2]
< 100 nM | Nc1ncnc2c1c(-c1ccc(Oc3cc(F)cc(OCc4cncn4C4CCCC4)c3)cc1)nn2C1CCOCC1 [Compound 77] | < 100 nM
< 100 nM | Cn1cncc1COc1cc(F)cc(Oc2ccc(-c3nn(CCO)c4ncnc(N)c34)c(F)c2)c1 [Compound 105] | 100 to 1000 nM
< 100 nM | Cc1ncc(COc2cc(F)cc(Oc3ccc(-c4nn(C(C)(C)C)c5ncnc(N)c45)cc3)c2)s1 [Compound 127] | < 100 nM
< 100 nM | COc1cccc(COc2cccc(Oc3ccc(-c4nn(C5CCCC5)c5ncnc(N)c45)cc3)c2)c1 [Compound 10] | 100 to 1000 nM
< 100 nM | Nc1ncnc2c1c(-c1ccc(Oc3cc(F)cc(OCc4ccccc4)c3)cc1)nn2C1CCOCC1 [Compound 63] | < 100 nM
< 100 nM | Cn1cncc1CCc1cc(F)cc(Oc2ccc(-c3nn(C4CCOCC4)c4ncnc(N)c34)cc2)c1 [Compound 67] | 100 to 1000 nM
< 100 nM | Cn1nc(-c2ccc(Oc3cccc(OCc4ccccc4)c3)cc2)c2c(N)ncnc21 [Compound 16] | 100 to 1000 nM
 | [2H]C([2H])(Oc1cc(F)cc(Oc2ccc(-c3nn(C4CCOCC4)c4ncnc(N)c34)cc2)c1)c1ccc(C)nc1 [Compound 94] | < 100 nM
< 100 nM | CC(=O)N1CCC[C@@H](n2nc(-c3ccc(Oc4cccc(OCc5cncs5)c4)cc3)c3c(N)ncnc32)C1 [Compound 27] | < 100 nM
< 100 nM | Cc1ncc(COc2cc(F)cc(Oc3ccc(-c4nn(CC(C)(C)O)c5ncnc(N)c45)cc3)c2)n1C [Compound 121] | 100 to 1000 nM
< 100 nM | COCCn1cncc1COc1cc(F)cc(Oc2ccc(-c3nn(C4CCOCC4)c4ncnc(N)c34)cc2)c1 [Compound 83] | 100 to 1000 nM
< 100 nM | Cc1ccc(COc2cc(F)cc(Oc3ccc(-c4nn(CC5(C)COC5)c5ncnc(N)c45)cc3)c2)cn1 [Compound 126] | 100 to 1000 nM
< 100 nM | Cc1ccc(COc2cc(F)cc(Oc3ccc(-c4nn(C5CCOCC5)c5ncnc(N)c45)c(F)c3)c2)cn1 [Compound 95] | < 100 nM
< 100 nM | Nc1ncnc2c1c(-c1ccc(Oc3cc(F)cc(OCc4ccc(CO)nc4)c3)cc1)nn2C1CCOCC1 [Compound 101] | < 100 nM
< 100 nM | Nc1ncnc2c1c(-c1ccc(Oc3cc(F)cc(OCc4cncn4Cc4ccccc4)c3)cc1)nn2C1CCOCC1 [Compound 76] | 100 to 1000 nM
< 100 nM | CC(C)n1nc(-c2ccc(Oc3cc(F)cc(OCc4ccc(CO)nc4)c3)cc2)c2c(N)ncnc21 [Compound 128] | < 100 nM
< 100 nM | CN(C)CCn1nc(-c2ccc(Oc3cccc(OCc4cncs4)c3)cc2)c2c(N)ncnc21 [Compound 34] | 100 to 1000 nM
 | CC(=O)n1nc(-c2ccc(Oc3cccc(OCc4ccccc4)c3)cc2)c2c(N)ncnc21 [Compound 45] | 100 to 1000 nM
< 100 nM | Nc1ncnc2c1c(-c1ccc(Oc3cc(F)cc(OCc4cncn4CCO)c3)cc1)nn2C1CCOCC1 [Compound 99] | 100 to 1000 nM
< 100 nM | Cn1cncc1COc1cc(F)cc(Oc2ccc(-c3nn(CCCO)c4ncnc(N)c34)cc2)c1 [Compound 116] | < 100 nM
< 100 nM | Nc1ncnc2c1c(-c1ccc(Oc3cccc(OCc4ccccc4C(F)(F)F)c3)cc1)nn2C1CCCC1 [Compound 29] | < 100 nM
< 100 nM | Cc1ncc(COc2cc(F)cc(Oc3ccc(-c4nn(C5COC5)c5ncnc(N)c45)cc3)c2)s1 [Compound 113] | < 100 nM
< 100 nM | Nc1ncnc2c1c(-c1ccc(Oc3cc(F)cc(OCc4cncnc4)c3)cc1)nn2C1CCOCC1 [Compound 68] | < 100 nM
< 100 nM | Cc1ncc(COc2cc(F)cc(Oc3ccc(-c4nn(CCCO)c5ncnc(N)c45)cc3)c2)s1 [Compound 104] | < 100 nM
 | [2H]C([2H])(Oc1cc(F)cc(Oc2ccc(-c3nn(C4CCOCC4)c4ncnc(N)c34)c(F)c2)c1)c1cncn1C [Compound 89] | < 100 nM
 | Cc1ncc(COc2cc(F)cc(Oc3ccc(-c4nn(C[C@@H]5CCCN5)c5ncnc(N)c45)cc3)c2)s1 [Compound 56] | 100 to 1000 nM
